# Source: US9161895B1, “Compositions and methods for improving overall tooth health and appearance” (The Procter & Gamble Company, priority 2008, dated 2015)
# What was measured:
# [1] = in vitro erosion cycling protocol (citric acid challenge, transverse microradiography); set-up: species or system human; details: for Surface Loss: aqueous solutions of test organophosphates (control: dentifrice slurry 1:3) in pooled human saliva, 1% citric acid 10 min, 4 treatments/day, 5 days, depth of total mineral loss by TMR; for % reduction vs. regular F control: reduction in surface mineral loss relative to Fluoride toothpaste (1100 ppm F), aqueous solutions
# Method: The effectiveness of compositions of the present invention containing an organophosphate was evaluated according to the following in vitro erosion cycling protocol.
# Tooth (dentin or enamel) specimens are prepared by cutting 3 mm-4 mm cores from extracted, human teeth using a diamond core drill. The teeth, collected by local surgeons, are stored until use in a 5% Thymol solution maintained at room temperature. Specimens are mounted on lucite rods with a dental acrylic (Dura Base, Reliance Mfg. Co.) covering all sides except the surface. Course polishing with 600-grit silicon carbide-water slurry is used to remove approximately 50 microns of the outer specimen surface to ensure homogeneity among specimens. Specimens are then polished with gamma alumina (Buehler No. 3, B Gamma Micropolish Alumina) to a mirror-like finish.
# Approximately ⅔ of the surface of each specimen is then covered with an acid resistant nail polish (placed in a mesial-distal fashion), leaving the center portion exposed as a treatment window. Covered portions remain covered with the acid-resistant nail polish throughout the experiment, serving as the control (untreated) areas for later microradiographic analysis. Specimens are randomly assigned to one of four treatment groups (4 specimens/group).
# Each group of specimens is placed in 20 ml of fresh, pooled human saliva for at least one hour to form an initial layer of pellicle on the specimen surfaces prior to first day of treatment. To begin the treatment phase, aqueous solutions of the test organophosphates and dentifrice slurry (1:3) of the control fluoride toothpaste are prepared in fresh, pooled human saliva. Each treatment cycle consists of: dentifrice slurry (2 min)→rinse in deionized distilled H2O→saliva (1 hour)→erosion challenge (10 min)→rinse in ddiH2O→saliva. There are 4 treatments per day for a total of five treatment days. Dentifrice treatments consist of immersing the specimens into the dentifrice slurry for two minutes while specimens rotate at 75 rpm. The erosion challenge consists of soaking each treatment group in 12 ml of 1% Citric acid (at room temperature). At any time specimens are not in treatment, they remain in 20 ml of pooled, human saliva (stirred). The saliva is refreshed 3×/day. At night, each group of specimens remains immersed in saliva (stirred at room temperature).
# After 5 days of treatment, thin cross-sections (80-120 μm thick) of each specimen are removed for assessment using standardized transverse microradiography (TMR) techniques. The exposed, treated area of each specimen is assessed with respect to complete mineral loss (erosion). Results with simple aqueous solutions of various alkyl phosphate compounds are presented in Table 1 as depth (in microns) of total mineral loss from the original specimen surface using the covered (untreated) areas as anatomical reference points. For comparison, percent reduction in surface mineral loss is calculated relative to water or fluoride containing compositions.
# [2] = compatibility of organophosphate additives with stannous fluoride solutions: visual inspection and soluble tin in supernatant; type: physicochemical
# Method: Aqueous formulations of polyvalent metal antibacterial agents were prepared and evaluated for clarity, chemical content and performance when mixed with various organophosphate additives as described above. The compositions comprise stannous fluoride as an example of polyvalent metal cation in combination with sodium gluconate or sodium tripolyphosphate as stabilizer and organophosphate additives. The compositions also contained zinc. […] Following addition of additives, the solutions were immediately inspected for any visual changes and then analyzed for soluble tin in the supernatants after centrifugation.
# [3] = tested on: total aerobes (pooled saliva inoculum); experiment: bacterial time kill assay of CPC mouthrinse formulations; type: cell-based; details: 30 seconds
# [4] = stannous fluoride/sodium gluconate solution, additive 1.0%
# [5] = stannous fluoride/sodium tripolyphosphate solution, additive 1.0%
# [6] = mouthrinse: organophosphate additive 0.05%, CPC 0.05%
# [7] = mouthrinse: organophosphate additive 0.1%, CPC 0.1%
# [8] = 0.454% stannous fluoride/3.0% sodium tripolyphosphate solution, additive 2.0%
# [9] = stannous fluoride/sodium gluconate solution, additive 0.5%
# [10] = 0.454% stannous fluoride/0.6% sodium gluconate solution, additive 2.0%
# [11] = stannous fluoride/sodium gluconate solution, additive 0.2%
# [12] = stannous fluoride/sodium tripolyphosphate solution, additive 0.08%
substance,measurement,setting,value
Laureth 3 phosphate [Foamphos L-3],Surface Loss,[1],13.25 μm
same,% reduction vs. regular F control,[1],60.74%
same,Soluble Tin,[2]; [4],1371 ppm
same,Visual Inspection,[2]; [4],Slight precipitate
same,Soluble Tin,[2]; [5],3496 ppm
same,Visual Inspection,[2]; [5],Slight hazy
same,Log Reduction vs. water control,[3]; [6],2.04
same,Log Reduction vs. water control,[3]; [7],2.05
Laureth-1 phosphate [MAP L210],Surface Loss,[1],25.75 μm
same,% reduction vs. regular F control,[1],23.70%
same,Soluble Tin,[2]; [8],1888 ppm
same,Visual Inspection,[2]; [8],Slight precipitate
same,Soluble Tin,[2]; [9],1419 ppm
same,Visual Inspection,[2]; [9],Slight precipitate
Laureth-9 phosphate [Foamphos L-9],clarity of stannous fluoride solutions (in words),[2],clear solutions
same,soluble stannous (in words),[2],high levels of soluble stannous
same,Soluble Tin,[2]; [10],3145 ppm
same,Visual Inspection,[2]; [10],Slight hazy
same,Soluble Tin,[2]; [8],2511 ppm
same,Visual Inspection,[2]; [8],Clear
same,Log Reduction vs. water control,[3]; [6],2.76
same,Log Reduction vs. water control,"[3]; mouthrinse: organophosphate additive 0.1%, CPC 0.05%",2.76
same,Log Reduction vs. water control,[3]; [7],2.76
PPG5 ceteareth-10 phosphate [CrodaphosSG],Surface Loss,[1],18.50 μm
same,% reduction vs. regular F control,[1],45.19%
Potassium C12/13 phosphate [MAP 230K],Surface Loss,[1],10.50 μm
same,% reduction vs. regular F control,[1],68.89%
same,Soluble Tin,[2]; [11],2015 ppm
same,Visual Inspection,[2]; [11],Slight precipitate
same,Soluble Tin,[2]; [12],2814 ppm
same,Visual Inspection,[2]; [12],Slight precipitate
same,Log Reduction vs. water control,"[3]; mouthrinse: organophosphate additive 0.0335%, CPC 0.0165%",−0.05
same,Log Reduction vs. water control,"[3]; mouthrinse: organophosphate additive 0.04%, CPC 0.01%",−0.01
Sodium diLaureth-10 phosphate [DLP-10],Soluble Tin,[2]; [10],2886 ppm
same,Visual Inspection,[2]; [10],Clear
Trilaureth-4 phosphate [Hostaphat KL 340D],Surface Loss,[1],22.50 μm
same,% reduction vs. regular F control,[1],33.33%
